Legend:
[1] = tested on: β-galactosidase in tumor sections; experiment: IHC analysis of β-galactosidase in intraliver tumors after i.v. dosing of formulated siRNA; format: in vivo, Scid female mice; parameters: key to β-galactosidase IHC staining score, column 1 / β-galactosidase IHC staining score, column 2 / β-galactosidase IHC staining score, column 3 / β-galactosidase IHC staining score, column 4 / β-galactosidase IHC staining score, column 5 / β-galactosidase IHC staining score, column 6: −: there was no staining, a small area of weak staining, or disperse strong single cell staining; +/−: there was 5% of the section with weak staining or one patch of strong staining; +: there was 15% of the section with strong staining; ++: there was ˜50% of the section with strong straining; +++: there was 80% of the section with strong straining; ++++: the whole section had strong staining
Method: The animal studies were carried out in accordance with internal Institutional Animal Care and Use Committee (IACUC) guidelines at Abbott Laboratories. Scid female mice at 6 to 8 weeks of age were obtained from Charles River Laboratory and used for intraliver tumor models. Mouse livers were exposed by vertical incision on mouse abdomens and the tumor cells were directly injected into the livers. The incision was closed by suture and wound clips. All cell lines used for creating xenograft tumors were subjected to the IMPACT profile I test (18 agents) at the University of Missouri Research Animal Diagnostic and Investigative Laboratory, and all cell lines were found negative for the 18 infectious agents tested. Tumor cells were suspended in a 1:1 mixture of S-MEM (Invitrogen, Carlsbad, Calif.) and matrigel (BD Bioscience, San Jose, Calif.) and inoculated at 1×10E6 cells per animal.
Treatments were started 3˜4 weeks after tumor inoculation. Formulated or unformulated siRNAs were administrated via tail vein (i.v) injection.
IHC was carried out as previously described [Li, L., et al., Evaluating hypoxia-inducible factor-1alpha as a cancer therapeutic target via inducible RNA interference in vivo. Cancer Res, 2005. 65(16): p. 7249-58]. Briefly, tumors were excised, cut into pieces of less than 3 mm in thickness and immediately fixed in buffered formalin solution with neutral pH (Sigma, St. Louis, Mo.). The formalin-fixed and paraffin-embedded tumor sections were then used for staining The mouse anti-β-galactosidase mAb (Promega, Madison, Wis.) was used to detect β-galactosidase in tumor sections. DAB (3,3′-diaminobenzidine) was used as the chromogen. IHC images were acquired using the Nikon TE2000 inverted microscope. The β-galactosidase staining was evaluated by 2 people independently based on the scoring system listed below. The average of the score was calculated for each tumor.
−, there was no staining, a small area of weak staining, or disperse strong single cell staining +/−, there was 5% of the section with weak staining or one patch of strong staining +, there was 15% of the section with strong staining ++, there was ˜50% of the section with strong straining +++, there was 80% of the section with strong straining ++++, the whole section had strong staining

MDA435-TetR-Luc cells = experiment: Transfection efficiency of MDA435-TetR-Luc cells with Lipid-Based Particles (TetRLuc assay); format: cell-based; conditions: formulation employing the cationic lipid
Method: To determine the knockdown efficacy of Lipid-Based Particles in an in vitro assay, MDA435-TetR-Luc cells (The positive readout reporter cell line MDA435-TetR-Luc contained a stably integrated copy of the luciferase gene expressed from a CMV promoter containing the tetR operator site. In addition, gene coding for a destabilized TetR protein was expressed in this cell line.) were plated in 96 well plate at a density of 10K cells per well in 100 ul of DMEM (Dulbecco's Modified Eagles Medium, Invitrogen Corp.) containing 10% fetal bovine serum (Invitrogen Corp.). Appropriate dilutions of Lipid-Based Particles were made in DMEM+10% fetal bovine serum medium, 10 ul of the diluted material was transferred into each well in triplicate. Transfected cells were further incubated at 37° C. for a period of 72 hours. […] The graphs represent average of triplicate readings of the Lipid-Based Particles treated sample divided by the average of readings from 9 wells treated with doxycycline.
The ability of novel cationic lipids to transfect siRNA in vitro was evaluated in the TetRLuc assay. By utilizing a releasable PEG lipid as for examples in formulations “a” or “b”, the transfection efficiency of the unshielded or partially shielded particle may be determined.

| SMILES | β-galactosidase IHC staining score, column 1 ([1]; intraliver tumor, i.v. tail vein, column 1 of 6 (not further defined)) | β-galactosidase IHC staining score, column 2 ([1]; intraliver tumor, i.v. tail vein, column 2 of 6 (not further defined)) | β-galactosidase IHC staining score, column 3 ([1]; intraliver tumor, i.v. tail vein, column 3 of 6 (not further defined)) | β-galactosidase IHC staining score, column 4 ([1]; intraliver tumor, i.v. tail vein, column 4 of 6 (not further defined)) | β-galactosidase IHC staining score, column 5 ([1]; intraliver tumor, i.v. tail vein, column 5 of 6 (not further defined)) | β-galactosidase IHC staining score, column 6 ([1]; intraliver tumor, i.v. tail vein, column 6 of 6 (not further defined)) | in vivo delivery ([1]; formulation employing the cationic lipid) | in vitro transfection activity (MDA435-TetR-Luc cells) |
| --- | --- | --- | --- | --- | --- | --- | --- | --- |
| C[C@H]1c2cccc(O)c2C(=O)C2=C(O)[C@]3(O)C(=O)C(C(N)=O)=C(O)[C@@H](N(C)C)[C@@H]3[C@@H](O)[C@@H]21 [Doxycycline] | +++ | +++ | +++ | +++ | +++ | +++ |  |  |
| CCCCC/C=C\C/C=C\CCCCCCCCOCC(CN1CCCC1)OCCCCCCCC/C=C\C/C=C\CCCCC (stereo not drawn) [Example 1, 1-(2,3-bis((9Z,12Z)-octadeca-9,12-dienyloxy)propyl)pyrrolidine] |  |  |  |  |  |  | efficient in vivo delivery | provided in vitro transfection activity |
| CCCCC/C=C\C/C=C\CCCCCCCCOCC(CN(CC)CC)OCCCCCCCC/C=C\C/C=C\CCCCC (stereo not drawn) [Example 57, N,N-diethyl-2,3-bis((9Z,12Z)-octadeca-9,12-dienyloxy)propan-1-amine] |  |  |  |  |  |  |  | may diminish activity |

Source: patent US20100104629A1, “CATIONIC LIPIDS AND USES THEREOF” (ABBOTT LABORATORIES, priority 2008, published 2010)
